Assay results published in article PMC3642162 (FEBS Open Bio, 2012).
pEC50: −log10 of the molar value.

Experiments:
[1] = target: T1, human TRα-1 (Homo sapiens, UniProt P10827); format: cell-based
T1 sequence (P10827 149-407 isoform P10827-2): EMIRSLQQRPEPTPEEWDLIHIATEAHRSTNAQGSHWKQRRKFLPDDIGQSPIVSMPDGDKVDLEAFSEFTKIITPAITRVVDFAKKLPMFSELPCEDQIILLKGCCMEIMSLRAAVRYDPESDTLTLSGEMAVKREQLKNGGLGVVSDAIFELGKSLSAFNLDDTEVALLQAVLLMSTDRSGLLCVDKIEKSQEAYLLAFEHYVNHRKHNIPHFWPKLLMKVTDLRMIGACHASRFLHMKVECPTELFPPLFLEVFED

[2] = system: human TRα-1 and TRβ-1; experiment: TR biosensors; format: cell-based; conditions: both biosensor strains
[3] = system: TRα; conditions: transcriptional activation assay; cited from earlier work
[4] = system: TRα and TRβ; conditions: cited from earlier work
[5] = system: TRβ; conditions: cited from earlier work
[6] = system: human ER β; conditions: human ER β biosensor, relative to 100% for 17-β-estradiol; cited from earlier work
[7] = system: porcine ER β; conditions: porcine ER β biosensor; cited from earlier work

| SMILES | TR biosensors, qualitative activity [2] | Other methods, reported activity [4] | further results |
| --- | --- | --- | --- |
| Cc1cc(OCC(=O)O)cc(C)c1Cc1ccc(O)c(C(C)C)c1 [GC-1, 3,5-dimethyl-4-(4′-hydroxy-3′-isopropylbenzyl)-phenoxy acetic acid] | Agonist, TRβ selective | Agonist, TRβ selective | EC50T3/EC50Ligand·100% [1]: 89.66%; Detection limit (lowest concentration giving unambiguous growth signal) ([1]; TRα biosensor, visual inspection of dose-response curves): […]; Z′ ([1]; pMIT::TRα-1, Z′ factor, highest vs lowest ligand concentration): 0.79; pEC50 [3]: […] |
| CC(C)c1cc(Oc2c(Cl)cc(CC(=O)O)cc2Cl)ccc1O [KB-141, 3,5-dichloro-4-(4-hydroxy-3-isopropylphenoxy) phenylacetic acid] | Agonist, TRβ selective | Agonist, TRβ selective |  |
| N[C@@H](Cc1cc(I)c(Oc2ccc(O)c(I)c2)c(I)c1)C(=O)[O-].O.[Na+] [T3, 3,3′,5-triiodo-L-thyronine sodium salt hydrate] | Agonist | Agonist |  |
| O=C(O)Cc1cc(I)c(Oc2ccc(O)c(I)c2)c(I)c1 [Triac, 3,3′,5-triiodothyroacetic acid] | Agonist, TRβ selective | Agonist, TRβ selective | Affinity higher than T3 [5]: approximately 3 fold; Potency higher than T3 ([4]; binding to TRβ): 6 fold |
| CC(C)(c1ccc(O)cc1)c1ccc(O)cc1 [bisphenol A] |  |  | Relative binding affinity (RBA=EC50Estradiol/EC50Ligand×100 %) [6]: 1.15%; Relative binding affinity (RBA=EC50Estradiol/EC50Ligand×100 %) [7]: 0.13% |
